Measurements published in patent US20230257350A1, “COMPOUNDS AND METHODS OF PROMOTING OLIGODENDROCYTE PRECURSOR DIFFERENTIATION” (The Cleveland Clinic Foundation, priority 2020, published 2023).

Key:
[1] = system: oligodendrocyte progenitor cells (OPC); assay: 96-well OPC screening platform: oligodendrocyte generation from primary OPCs; assay type: cell-based, mouse; conditions: for EC50: Mus musculus, Oligodendrocyte progenitor cell
Method: 1) an optimized method to produce primary culture of highly pure mouse oligodendrocyte progenitor cells (OPC); and
2) an algorithm to identify and quantify oligodendrocytes in 96-well format.
(§1) Briefly, the high-throughput small molecule screen included a primary screening where small drug-like organic compounds ([…]) are added to cells seeded on a 96-well plate an incubated. The cells are then visually screened for oligodendrocyte precursor morphology changes. In a secondary screening, differentiation induced by selected compounds was further validated by fluorescence microscopy. Increased fluorescence in treated oligodendrocyte cells generated from a PIp-EGFP transgenic mouse was indicative of cell maturation. Further oligodendrocyte precursor maturation in response to selected compounds was assessed by induction of myelin protein expression as determined by immunocytochemistry and western blot.
Using the 96-well OPC-screening platform, a CNS-bias library of 20,000 drug-like small molecule compounds (Cambridge Co., San Diego, Calif.) was screened, using DMSO as a negative control and T3 (triiodothyronine) as a positive control. Initial screening was at 10 μM, and 390 primary hits were identified. Further testing confirmed that 57 compounds produced at least 50% response of T3.

[2] = system: cuprizone mouse model of demyelination/remyelination; assay: Cuprizone/rapamycin demyelination and remyelination model; assay type: in vivo, mice; conditions: i.p. daily 6 weeks, 10 mg/kg, vs control
Text: 2016; 283(Pt A): 330-340, which is incorporated herein by reference in its entirety. […] At the end of the treatment period, mice were perfused and different tissues analyzed for remyelination. In cortex and hippocampus, PLP antibody staining was used to assess remyelination. In corpus callosum, the number of myelinated axons in semi-thin (1 μm) Epon sections was quantified. […] This in vivo animal data further validates a strategy of using cell-based phenotypic screening to identify remyelination compounds.

Solubility = assay type: physicochemical
MTT assay (viability) = assay type: cell-based; conditions: up to 30 μM
OPCs (PLP-EGFP) = assay: Immunostaining of oligodendrocyte markers PLP and MBP in treated OPCs; assay type: cell-based, mouse; conditions: 4 days treatment
Method: as §1
Finally, similar activation of oligodendrocyte markers was observed when wild-type OPCs were treated with the “hit” compounds, eliminating the possibility that expression of the EGFP construct affected the results.

[3] = Preliminary pharmacokinetic analysis, i.p. injection, LC/MS/MS of plasma and brain; assay type: in vivo; conditions: i.p. 10 mg/kg, mice

CC1CCC(N2CCN(Cc3cccc(Br)c3)CC2)CC1 (centres unmarked) [CN007]
EC50 [1]: 40 nM

CC1CCN(CCOCCOc2c(Cl)cc(Cl)cc2Cl)CC1 [CN045]
remyelination in corpus callosum (number of myelinated axons) ([2]; p<0.01): significantly increased remyelination | remyelination in cortex (PLP antibody staining) ([2]; p<0.01): significantly increased remyelination | remyelination in hippocampus (PLP antibody staining) ([2]; p<0.05): significantly increased remyelination | solubility (Solubility): > 500 µM | EC50 ([1]; Table 1, OPC differentiation): 40 nM | increase in the percentage of oligodendrocytes compared with DMSO controls ([1]; dose-response, FIG. 3B): ~4 fold | efficacy compared with benztropine, clemastine or T3 ([1]; same OPC assay, multiple concentrations, FIG. 2): almost twice the efficacy | viability (MTT assay (viability)): > 80% | co-labeling of EGFP+ cells by PLP and MBP antibodies (OPCs (PLP-EGFP)): All EGFP+ cells were co-labeled by PLP and MBP antibodies | Kp ([3]; C57BU6J, mouse, ip, brain homogenate vs. plasma, read-out: brain/plasma ratio): 0.8 | time of peak concentration following injection [3]: ~2 h

CCc1cc(OCCOCCN2CCC(C)CC2)ccc1Cl [CN049]
EC50 ([1]; Table 1, OPC differentiation): 165 nM

Cc1cc(Cl)cc(Cl)c1OCCOCCN1CCN(C)CC1 [CN265]
EC50 ([1]; Table 1, OPC differentiation): 540 nM

Cc1cc(Cl)cc(C)c1OCCCCN1CCC[C@H](C)C1 [CN329]
EC50 ([1]; Table 2, OPC differentiation): 42 nM

Cc1cc(Cl)cc(C)c1OCCCCN1CCCCC1 [CN478]
EC50 ([1]; Table 2, OPC differentiation): 78 nM

Fc1cc(Cl)ccc1OC[C@@H]1CCCN2CCCC[C@H]12 [CN566]
EC50 ([1]; Table 2, OPC differentiation): 340 nM

Cc1ccc(OCCOCCN2CCC(C)CC2)c(Cl)c1 [CN570]
EC50 ([1]; Table 1, OPC differentiation): 200 nM

Cc1cc(Cl)cc(C)c1OCCCCN1CCOCC1 [CN644]
EC50 ([1]; Table 2, OPC differentiation): 270 nM

Cc1cc(Cl)ccc1OCCOCCN1CCC(C)CC1 [CN918]
EC50 ([1]; Table 1, OPC differentiation): 193 nM
